{
  "source": "ChEMBL document CHEMBL3098039",
  "about": "“Urea/oxalamide tethered β-lactam-7-chloroquinoline conjugates: synthesis and in vitro antimalarial evaluation” (Eur J Med Chem, 2014)",
  "key": {"[1]": {"system": "Plasmodium falciparum", "test": "Antiplasmodial activity against chloroquine-resistant ring stage Plasmodium falciparum W2 assessed as parasitemia after 48 hrs by flow cytometry", "type": "functional, organism-based", "conditions": "W2, 48 h"}, "[2]": {"test": "Cytotoxicity against human HeLa cells assessed as cell viability at 1 uM after 24 hrs by trypan blue assay relative to untreated control", "type": "cell-based", "conditions": "read-out: Activity"}, "[3]": {"test": "Cytotoxicity against human HeLa cells assessed as cell viability at 10 uM after 24 hrs by trypan blue assay relative to untreated control", "type": "cell-based", "conditions": "read-out: Activity"}},
  "data": [
    {"smiles": "Cc1ccc(N2C(=O)[C@H](NC(=O)NCCCCNc3ccnc4cc(Cl)ccc34)[C@@H]2/C=C/c2ccccc2)cc1", "note": "(mixture of isomers)", "values": [
      {"measurement": "IC50", "setting": "[1]", "value": 149, "unit": "nM"}
    ]},
    {"smiles": "COc1cccc2c1C(=O)c1c(O)c3c(c(O)c1C2=O)C[C@@](O)(C(=O)CO)C[C@@H]3O[C@H]1C[C@H](N)[C@H](O)[C@H](C)O1", "note": "[DOXORUBICIN]", "values": [
      {"measurement": "viability at 24 h, 1 µM", "setting": "[2]", "value": 62, "unit": "%"}
    ]},
    {"smiles": "O=C(NCCNc1ccnc2cc(Cl)ccc12)N[C@H]1C(=O)N(C2CCCCC2)[C@H]1/C=C/c1ccccc1", "note": "(mixture of isomers)", "values": [
      {"measurement": "IC50", "setting": "[1]", "value": 157, "unit": "nM"}
    ]},
    {"smiles": "O=C(NCCCNc1ccnc2cc(Cl)ccc12)N[C@H]1C(=O)N(C2CCCCC2)[C@H]1/C=C/c1ccccc1", "note": "(relative stereo)", "values": [
      {"measurement": "IC50", "setting": "[1]", "value": 73, "unit": "nM"}
    ]},
    {"smiles": "Cc1ccc(N2C(=O)[C@@H](NC(=O)C(=O)NCCCNc3ccnc4cc(Cl)ccc34)[C@H]2/C=C/c2ccccc2)cc1", "note": "(racemic)", "values": [
      {"measurement": "IC50", "setting": "[1]", "value": 88.7, "unit": "nM"}
    ]},
    {"smiles": "O=C(NCCCNc1ccnc2cc(Cl)ccc12)C(=O)N[C@@H]1C(=O)N(C2CCCCC2)[C@@H]1/C=C/c1ccccc1", "note": "(mixture of isomers)", "values": [
      {"measurement": "IC50", "setting": "[1]", "value": 121, "unit": "nM"}
    ]},
    {"smiles": "C[C@@H]1CC[C@H]2[C@@H](C)C(=O)O[C@@H]3O[C@@]4(C)CC[C@@H]1[C@]32OO4", "note": "[ARTEMISININ]", "values": [
      {"measurement": "IC50", "setting": "[1]", "value": 10.6, "unit": "nM"}
    ]},
    {"smiles": "O=C(NCCCCNc1ccnc2cc(Cl)ccc12)N[C@H]1C(=O)N(C2CCCCC2)[C@H]1/C=C/c1ccccc1", "note": "(relative stereo)", "values": [
      {"measurement": "IC50", "setting": "[1]", "value": 193, "unit": "nM"}
    ]},
    {"smiles": "CCOC(=O)C(=O)N[C@@H]1C(=O)N(c2ccc(C)cc2)[C@@H]1/C=C/c1ccccc1", "note": "(racemic)", "values": [
      {"measurement": "IC50", "setting": "[1]", "value": "> 1000", "unit": "nM"}
    ]},
    {"smiles": "Cc1ccc(N2C(=O)[C@H](NC(=O)NCCCCCCNc3ccnc4cc(Cl)ccc34)[C@@H]2/C=C/c2ccccc2)cc1", "note": "(racemic)", "values": [
      {"measurement": "viability at 24 h, 10 µM", "setting": "[3]", "value": 90, "unit": "%"},
      {"measurement": "IC50", "setting": "[1]", "value": 42.4, "unit": "nM"}
    ]},
    {"smiles": "Cc1ccc(N2C(=O)[C@@H](NC(=O)C(=O)NCCNc3ccnc4cc(Cl)ccc34)[C@H]2/C=C/c2ccccc2)cc1", "note": "(racemic)", "values": [
      {"measurement": "IC50", "setting": "[1]", "value": 44.8, "unit": "nM"}
    ]},
    {"smiles": "CCOC(=O)C(=O)N[C@@H]1C(=O)N(C2CCCCC2)[C@@H]1/C=C/c1ccccc1", "note": "(racemic)", "values": [
      {"measurement": "IC50", "setting": "[1]", "value": "> 1000", "unit": "nM"}
    ]},
    {"smiles": "O=C(NCCCCNc1ccnc2cc(Cl)ccc12)C(=O)N[C@@H]1C(=O)N(C2CCCCC2)[C@@H]1/C=C/c1ccccc1", "note": "(mixture of isomers)", "values": [
      {"measurement": "IC50", "setting": "[1]", "value": 68.6, "unit": "nM"}
    ]},
    {"smiles": "O=C(NCCCCCCNc1ccnc2cc(Cl)ccc12)C(=O)N[C@@H]1C(=O)N(C2CCCCC2)[C@@H]1/C=C/c1ccccc1", "note": "(racemic)", "values": [
      {"measurement": "viability at 24 h, 10 µM", "setting": "[3]", "value": 90, "unit": "%"},
      {"measurement": "IC50", "setting": "[1]", "value": 35, "unit": "nM"}
    ]},
    {"smiles": "CCNCc1cc(Nc2ccnc3cc(Cl)ccc23)ccc1O", "note": "[DESETHYL AMODIAQUINE]", "values": [
      {"measurement": "IC50", "setting": "[1]", "value": 401, "unit": "nM"}
    ]},
    {"smiles": "Cc1ccc(N2C(=O)[C@H](NC(=O)NCCCNc3ccnc4cc(Cl)ccc34)[C@@H]2/C=C/c2ccccc2)cc1", "note": "(racemic)", "values": [
      {"measurement": "IC50", "setting": "[1]", "value": 51, "unit": "nM"}
    ]},
    {"smiles": "O=C(NCCCCCCNc1ccnc2cc(Cl)ccc12)C(=O)N[C@@H]1C(=O)N(c2ccc(Cl)cc2)[C@@H]1/C=C/c1ccccc1", "note": "(racemic)", "values": [
      {"measurement": "IC50", "setting": "[1]", "value": 50.8, "unit": "nM"}
    ]},
    {"smiles": "O=C(NCCNc1ccnc2cc(Cl)ccc12)C(=O)N[C@@H]1C(=O)N(C2CCCCC2)[C@@H]1/C=C/c1ccccc1", "note": "(racemic)", "values": [
      {"measurement": "IC50", "setting": "[1]", "value": 61.3, "unit": "nM"}
    ]},
    {"smiles": "CCOC(=O)N[C@@H]1C(=O)N(C2CCCCC2)[C@@H]1/C=C/c1ccccc1", "note": "(racemic)", "values": [
      {"measurement": "IC50", "setting": "[1]", "value": "> 1000", "unit": "nM"}
    ]},
    {"smiles": "O=C(NCCCCNc1ccnc2cc(Cl)ccc12)C(=O)N[C@@H]1C(=O)N(c2ccc(Cl)cc2)[C@@H]1/C=C/c1ccccc1", "note": "(racemic)", "values": [
      {"measurement": "IC50", "setting": "[1]", "value": 82.2, "unit": "nM"}
    ]},
    {"smiles": "CCOC(=O)C(=O)N[C@@H]1C(=O)N(c2ccc(Cl)cc2)[C@@H]1/C=C/c1ccccc1", "note": "(relative stereo)", "values": [
      {"measurement": "IC50", "setting": "[1]", "value": "> 1000", "unit": "nM"}
    ]},
    {"smiles": "O=C(NCCCCCCNc1ccnc2cc(Cl)ccc12)N[C@H]1C(=O)N(C2CCCCC2)[C@H]1/C=C/c1ccccc1", "note": "(racemic)", "values": [
      {"measurement": "IC50", "setting": "[1]", "value": 52.1, "unit": "nM"}
    ]},
    {"smiles": "CCOC(=O)N[C@@H]1C(=O)N(c2ccc(C)cc2)[C@@H]1/C=C/c1ccccc1", "note": "(racemic)", "values": [
      {"measurement": "IC50", "setting": "[1]", "value": "> 1000", "unit": "nM"}
    ]},
    {"smiles": "Cc1ccc(N2C(=O)[C@H](NC(=O)NCCNc3ccnc4cc(Cl)ccc34)[C@@H]2/C=C/c2ccccc2)cc1", "note": "(mixture of isomers)", "values": [
      {"measurement": "IC50", "setting": "[1]", "value": 53.1, "unit": "nM"}
    ]}
  ]
}
